Reference: PubChem BioAssay AID180 (DTP/NCI, 2004)
Values joined by “and” are separate entries in the source; they are usually repeats but may differ in a detail not shown here. Identical values can stand only once.

Tested on: BDF1 mice, Adenocarcinoma 755 s.c., tumor weight T/C
Experiment: NCI In Vivo Anticancer Drug Screen. Data for tumor model Adenocarcinoma 755 (subcutaneous) in B6D2F1 (BDF1) mice
Conditions: endpoint: mean tumor weight, schedule: Q01DX011 (ip), higher = larger tumour
Summary of the method: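 Readout: T/C, i.e. treated-group measurement over vehicle-control measurement. Endpoint is survival or tumor size in tumor-bearing mice given compound.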

[1] = dose: 10.0 mg/kg/injection, vehicle: carboxymethylcellulose (CMC)
[2] = dose: 1.8 mg/kg/injection, vehicle: carboxymethylcellulose (CMC)

## [I][Hg][CH2]C1OC2CCC1C[CH]2[Hg][I] (stereo not given)
dose: 6.0 mg/kg/injection, vehicle: carboxymethylcellulose (CMC)
  T/C: 89 % of control

## Cc1cc(N(CCCl)CCCl)ccc1N=Nc1ccccc1C(=O)O
dose: 0.44 mg/kg/injection, vehicle: carboxymethylcellulose (CMC)
  T/C: 115 % of control
dose: 0.87 mg/kg/injection, vehicle: carboxymethylcellulose (CMC)
  T/C: 39 % of control
dose: 1.75 mg/kg/injection, vehicle: carboxymethylcellulose (CMC)
  T/C: 53 % of control
dose: 3.5 mg/kg/injection, vehicle: carboxymethylcellulose (CMC)
  T/C: 20 % of control

## S=c1[nH]c(=S)c2[nH]cnc2[nH]1
dose: 25.0 mg/kg/injection, vehicle: carboxymethylcellulose (CMC)
  T/C: 84 % of control
dose: 50.0 mg/kg/injection, vehicle: carboxymethylcellulose (CMC)
  T/C: 58 % of control
dose: 100.0 mg/kg/injection, vehicle: carboxymethylcellulose (CMC)
  T/C: 31 % of control

## O=C(O)C(O)C(O)C(O)C(O)CO.O=C(O)C(O)C(O)C(O)C(O)CO.O=C(O)C(O)C(O)C(O)C(O)CO.[Ga] (stereo not given)
[1]
  T/C: 72 % of control
dose: 20.0 mg/kg/injection, vehicle: carboxymethylcellulose (CMC)
  T/C: 64 % of control
dose: 40.0 mg/kg/injection, vehicle: carboxymethylcellulose (CMC)
  T/C: 25 % of control
dose: 80.0 mg/kg/injection, vehicle: carboxymethylcellulose (CMC)
  T/C: 10 % of control

## N#CCSc1nc(N)nc2nc[nH]c12
dose: 0.5 mg/kg/injection, vehicle: carboxymethylcellulose (CMC)
  T/C: 82 % of control
dose: 1.0 mg/kg/injection, vehicle: carboxymethylcellulose (CMC)
  T/C: 63 % of control
dose: 2.0 mg/kg/injection, vehicle: carboxymethylcellulose (CMC)
  T/C: 70 % of control

## N=[N+]=CC(=O)OCC(N)C(=O)O (stereo not given)
dose: 0.9 mg/kg/injection, vehicle: carboxymethylcellulose (CMC)
  T/C: 124 % of control
[2]
  T/C: 111 % of control
dose: 2.31 mg/kg/injection, vehicle: carboxymethylcellulose (CMC)
  T/C: 72 % of control
dose: 3.6 mg/kg/injection, vehicle: carboxymethylcellulose (CMC)
  T/C: 90 % of control and 78 % of control
dose: 4.63 mg/kg/injection, vehicle: carboxymethylcellulose (CMC)
  T/C: 61 % of control
dose: 4.8 mg/kg/injection, vehicle: carboxymethylcellulose (CMC)
  T/C: 62 % of control and 74 % of control
dose: 7.2 mg/kg/injection, vehicle: carboxymethylcellulose (CMC)
  T/C: 28 % of control and 40 % of control and 51 % of control
dose: 7.4 mg/kg/injection, vehicle: carboxymethylcellulose (CMC)
  T/C: 50 % of control
dose: 9.25 mg/kg/injection, vehicle: carboxymethylcellulose (CMC)
  T/C: 50 % of control and 66 % of control
dose: 12.33 mg/kg/injection, vehicle: carboxymethylcellulose (CMC)
  T/C: 23 % of control
dose: 18.5 mg/kg/injection, vehicle: carboxymethylcellulose (CMC)
  T/C: 10 % of control

## CC1CCC(n2cnc3c(=S)nc[nH]c32)O1 (stereo not given)
[2]
  T/C: 86 % of control
dose: 3.7 mg/kg/injection, vehicle: carboxymethylcellulose (CMC)
  T/C: 12 % of control
dose: 7.5 mg/kg/injection, vehicle: carboxymethylcellulose (CMC)
  T/C: 3 % of control
dose: 15.0 mg/kg/injection, vehicle: carboxymethylcellulose (CMC)
  T/C: 3 % of control

## Cn1cnc2c(ncn2C2OC(CO)C(O)C2O)c1=N (stereo not given)
dose: 30.0 mg/kg/injection, vehicle: saline
  T/C: 118 % of control
dose: 120.0 mg/kg/injection, vehicle: saline
  T/C: 47 % of control
dose: 240.0 mg/kg/injection, vehicle: saline
  T/C: 74 % of control

## Nc1ccc(C(=O)O)c(O)c1
dose: 37.88 mg/kg/injection, vehicle: carboxymethylcellulose (CMC)
  T/C: 56 % of control
dose: 43.25 mg/kg/injection, vehicle: carboxymethylcellulose (CMC)
  T/C: 55 % of control
dose: 75.75 mg/kg/injection, vehicle: carboxymethylcellulose (CMC)
  T/C: 101 % of control
dose: 86.5 mg/kg/injection, vehicle: carboxymethylcellulose (CMC)
  T/C: 75 % of control
dose: 141.17 mg/kg/injection, vehicle: carboxymethylcellulose (CMC)
  T/C: 157 % of control
dose: 151.5 mg/kg/injection, vehicle: carboxymethylcellulose (CMC)
  T/C: 104 % of control
dose: 173.0 mg/kg/injection, vehicle: carboxymethylcellulose (CMC)
  T/C: 75 % of control
dose: 303.0 mg/kg/injection, vehicle: carboxymethylcellulose (CMC)
  T/C: 71 % of control
dose: 346.0 mg/kg/injection, vehicle: carboxymethylcellulose (CMC)
  T/C: 82 % of control

## NC(=O)CCl
dose: 25.0 mg/kg/injection, vehicle: other
  T/C: 91 % of control
dose: 50.0 mg/kg/injection, vehicle: other
  T/C: 64 % of control

## CC(C)CN1CC(C)C(=O)N(c2ccccc2)C1=O (stereo not given)
dose: 15.0 mg/kg/injection, vehicle: methylcellulose (MC)
  T/C: 61 % of control
dose: 31.0 mg/kg/injection, vehicle: methylcellulose (MC)
  T/C: 66 % of control
dose: 62.0 mg/kg/injection, vehicle: methylcellulose (MC)
  T/C: 73 % of control
dose: 125.0 mg/kg/injection, vehicle: methylcellulose (MC)
  T/C: 75 % of control
dose: 250.0 mg/kg/injection, vehicle: methylcellulose (MC)
  T/C: 68 % of control

## CSc1cc(NCc2ccccc2)nc(N)n1
dose: 25.0 mg/kg/injection, vehicle: methylcellulose (MC)
  T/C: 85 % of control
dose: 75.0 mg/kg/injection, vehicle: methylcellulose (MC)
  T/C: 65 % of control

## NC(Cc1ccc(N(CCCl)CCCl)cc1)C(=O)O (stereo not given)
dose: 0.32 mg/kg/injection, vehicle: carboxymethylcellulose (CMC)
  T/C: 58 % of control
dose: 0.62 mg/kg/injection, vehicle: carboxymethylcellulose (CMC)
  T/C: 87 % of control and 66 % of control
dose: 0.64 mg/kg/injection, vehicle: carboxymethylcellulose (CMC)
  T/C: 32 % of control
dose: 0.83 mg/kg/injection, vehicle: carboxymethylcellulose (CMC)
  T/C: 46 % of control
dose: 1.0 mg/kg/injection, vehicle: methylcellulose (MC)
  T/C: 82 % of control
dose: 1.28 mg/kg/injection, vehicle: carboxymethylcellulose (CMC)
  T/C: 23 % of control
dose: 1.38 mg/kg/injection, vehicle: carboxymethylcellulose (CMC)
  T/C: 20 % of control
dose: 1.5 mg/kg/injection, vehicle: methylcellulose (MC)
  T/C: 26 % of control
dose: 1.67 mg/kg/injection, vehicle: carboxymethylcellulose (CMC)
  T/C: 39 % of control
dose: 1.73 mg/kg/injection, vehicle: carboxymethylcellulose (CMC)
  T/C: 19 % of control
dose: 2.0 mg/kg/injection, vehicle: methylcellulose (MC)
  T/C: 30 % of control
dose: 2.3 mg/kg/injection, vehicle: carboxymethylcellulose (CMC)
  T/C: 23 % of control
dose: 2.56 mg/kg/injection, vehicle: carboxymethylcellulose (CMC)
  T/C: 9 % of control
dose: 3.0 mg/kg/injection, vehicle: methylcellulose (MC)
  T/C: 14 % of control
dose: 3.35 mg/kg/injection, vehicle: carboxymethylcellulose (CMC)
  T/C: 9 % of control
dose: 3.45 mg/kg/injection, vehicle: carboxymethylcellulose (CMC)
  T/C: 12 % of control
dose: 4.0 mg/kg/injection, vehicle: methylcellulose (MC)
  T/C: 12 % of control
dose: 5.0 mg/kg/injection, vehicle: carboxymethylcellulose (CMC)
  T/C: 11 % of control and 30 % of control
dose: 6.0 mg/kg/injection, vehicle: methylcellulose (MC)
  T/C: 5 % of control
dose: 6.25 mg/kg/injection, vehicle: methylcellulose (MC)
  T/C: 5 % of control
dose: 6.7 mg/kg/injection, vehicle: carboxymethylcellulose (CMC)
  T/C: 4 % of control
dose: 6.9 mg/kg/injection, vehicle: carboxymethylcellulose (CMC)
  T/C: 8 % of control
dose: 8.0 mg/kg/injection, vehicle: methylcellulose (MC)
  T/C: 6 % of control
[1]
  T/C: 4 % of control
